Data published in patent US10112978B2, “Peptide and use thereof” (OSAKA UNIVERSITY, priority 2014, dated 2018).

Legend:
[1] = tested on: C3H/HeN mice; test: Hair-growth effect in shaved mice; assay type: in vivo
Experimental: The dorsal skin of 8-week-old male C3H/HeN mice in the resting phase of the hair cycle was shaved using a hair clipper and a shaver with caution to avoid damage to the skin. The shaved area was 2×4 cm. To the shaved area, 100 μL of a 0.02% (w/v), 0.1% (w/v) or 0.5% (w/v) OSK-1 solution was applied once daily for 14 days starting from 3 days after the shaving. For the control group, physiological saline was applied, and for the positive control group, 3% (w/v) minoxidil was applied. The day of shaving was designated as Day 0. On Day 3, Day 7, Day 10, Day 14 and Day 17, the percentage of the area of hair regrowth relative to the entire shaved area in each mouse was scored according to the following criteria: 0% was defined as score 0, 20% or less was defined as score 1, 40% or less was defined as score 2, 60% or less was defined as score 3, 80% or less was defined as score 4, and 100% or less was defined as score 5. In addition, 10 strands of newly grown hair in the shaved area of each mouse were pulled out on Day 17, the length of each strand of newly grown hair was measured under a stereomicroscope, and the measured lengths were summed as the hair length (mm) of each animal.

[2] = tested on: mouse bone marrow-derived dendritic cells; test: Cytokine production in mouse bone marrow-derived dendritic cells (ELISA); assay type: cell-based; conditions: about 16 hours
Experimental: Bone marrow cells were harvested from the thigh bone of a C57BL/6 mouse, seeded in RPMI1640 medium containing […] GM-CSF (granulocyte macrophage colony-stimulating factor) and 10% FBS, and cultured for 3 days. After the 3-day culture, a fresh medium was added and culture was continued for additional 4 days. The cells not adherent on the culture plate were harvested and regarded as bone marrow-derived dendritic cells. The cells were suspended at 2×10^6 cells/mL in RPMI1640 medium containing 10% FBS, and the cell suspension was added to a 24-well plate at 500 μL/well. An OSK-1 solution was prepared at a 2-fold higher concentration than the final concentration in RPMI1640 medium containing 10% FBS and added to the plate at 500 μL/well. After about 16 hours, the culture supernatant was harvested, and the cytokine concentrations in the supernatant were measured by ELISA.

Sequence: ELKLIFLHRLKRLRKRLKRK (Ac-ELKLIFLHRLKRLRKRLKRK-NH2) [OSK-1]
- hair length ([1]; 0.5% OSK-1 group, Day 17, compared with 3% minoxidil group): almost comparable to those in the 3% minoxidil group
- hair regrowth score ([1]; 0.5% OSK-1 group, compared with 3% minoxidil group): almost comparable to those in the 3% minoxidil group
- hair growth ([1]; 100 μL of 0.02%, 0.1% or 0.5% (w/v) solution on shaved dorsal skin once daily for 14 days): promote hair growth in a concentration dependent manner
- production of the cytokines (IL-1β, IFNγ, TNFα, IL-6 and IL-12p70) [2]: induced the production of the cytokines in the mouse bone marrow-derived dendritic cells in an OSK-1 concentration dependent manner
